Results on 1 molecule are retold here after patent publication US20230117859A1, “INHALED XENON THERAPY IN NEURODEGENERATIVE DISEASE” (The Brigham and Women`s Hospital, Inc., priority 2020, published 2023).

Assay [1] has as its system dN-phagocytic microglia (MG-dNΦ). The experiment in a line: Acute neurodegeneration mouse model (dead neurons injection), RNA-Sequencing of microglia. It counts as in vivo. How it is done:
We developed a new acute neurodegeneration mouse model to induce neurodegenerative MGnD-microglia^36. In brief, primary neurons (d7-d10) were typically cultured one week after initiation of culture. Neurons were removed from the surface of the plate by multiple washed with PBS. The neurons were then incubated under UV light (302 nm) at an intensity of 6315 W for 15 minutes to induce apoptosis. After this step the neurons were kept on ice. The cells were collected, spun down via centrifugation, and resuspended in 1 ml PBS. Next they were stained with the labeling dye (Alexa405 NHS Ester, Invitrogen, A3000) for 15 min at 37° C., protected from light. Neurons were then washed, spun and resuspended. Number of apoptotic cells was determined using a trypan blue stain and a cellometer. Neurons were resuspended at a density of 50,000 cells per μl.
These apoptotic dead neurons (dN) injected into the cortex and hippocampus of naïve mice induced the recruitment of P2ry12^+ microglia towards the site of injection. P2ry12^+ microglia changed morphology from an M0-homeostatic non-phagocytic (MG-nΦ) phenotype to an amoeboid-phagocytic (MG-dNΦ) phenotype at the vicinity of the injection site. Induction of MGnD microglia was not detected in PBS-injected control brains. […] Trem2 expression has been shown previously, including by our laboratory and others, to have beneficial effect on microglia recruitment towards Aβ-plaques^61-63, associated with restriction of AD^64. Moreover, TREM2 has been recently identified as a receptor for Aβ^65. […] This provides evidence that Xe-gas treatment has a protective immunomodulatory role to induce microglia protective functions to treat AD.

The test system of assay [2] is platelets and red blood cells, Lymphocyte-like Jurkat cells, H9C2 and U937 cells. The experiment in a line: Anti-apoptotic effect of Xe-gas on a variety of biological cells. The class given is cell-based, human. The text has this: (§1) FIGS. 7A-D. Xe-treatment prevents apoptosis in variety of cells. A. Viability of lymphocyte-like Jurkat cell after 1 day storage. […] C. Viability of monocyte-like U-937 cells after 1 day storage. D. Viability of monocyte-like U-937 cells after 14 days storage.
(§2) It is known that Xe treatment protects neurons from apoptosis by reducing intracellular calcium, protecting mitochondrial membranes, and attenuating cell damage caused by reactive oxygen species (ROS)^28,29.

The test system of another assay is U-937 cells. The experiment in a line: Apoptosis in stored U-937 cells. Particulars: xenon vs no gas. The class given is cell-based, human.
Description: as §1, §2

Assay [3] has as its system cortical neurons and basal forebrain cholinergic neurons. Particulars: mild excitotoxic stress by continued exposure to PDC; cited from earlier work.
For assay [4], the system named is FCRLS+ microglia in APP/PS1 mice. The experiment in a line: RNAseq of FCRLS+ microglia from Xe-treated APP/PS1 mice. It counts as in vivo, mouse. The text has this: Based on recent findings that danger signals (dead neurons, neuritic axons and Ab peptides) alter functional phenotype of microglia from the homeostatic (M0) to neurodegenerative (MGnD) phenotype in AD, we hypothesized that Xe-gas treatment has a protective immunomodulatory role to restore homeostatic ‘sensome’ microglial functions in neurodegenerative diseases. To address whether Xe-treatment will restore functional microglia and suppress AD-like pathology in APP-PS1^30 mice, we started treatment with Xe at 2 months of age (at the onset of amyloid deposition—early stage) for 8 weeks (once a week for 40 minutes). Of note, these mice start to develop plaques at 6 weeks of age with saturation around 8 months of age. To treat mice with xenon gas we constructed a special chamber which can control supply of Xe and atmospheric gas (FIG. 3A). The closed-circuit system pumps recirculated gas through soda-lime to absorb CO2. CO2 and O2 concentrations were continuously monitored. The gas mixture was premixed in the outside container with excessive pressure. That lead to approximately 70% Xe and 20% 02 in the chamber. When 02 concentration reduced, additional gas mixture was supplied from the mixing container. The system was optimized to treat simultaneously up to 6 mice. Two types of mice were used: APP/PS1 mice and Wild Type mice as a control. The groups contained both males and females who were housed and treated separately. In each group we subjected portion of the mice to Xe treatment, and another portion was used as control by treatment with atmospheric air (FIG. 3B). We isolated FCRLS^+ microglia by FACS and performed RNAseq analysis.

A further assay relates to EAE in C57BL6 animals. The assay can be described thus: Experimental autoimmune encephalomyelitis (EAE) model. The class given is in vivo, mouse. How it is done:
FIGS. 9A-E. Xenon treatments delayed EAE symptoms. A. Scheme representative of experimental design used. C57BL6 animals were immunized with 150 ug of MOG diluted v/v in CFA followed by two doses of B. Pertussis toxin (200 ng) applied during immunization and 48 hours later. The treatment with xenon consisted of a 40 minutes exposure twice a week starting on day 0. After clinical evaluation the animals were euthanized at the peak of the disease and the frequency of inflammatory cells evaluated by flow cytometry and IHC. B. Score curve from clinical signs. C. Evaluation of microglia cells from spinal cord by flow cytometry. Gate based on population CD45+, CD11b+, Ly6C−, Clec12a−. D. T Helper cells evaluation by flow cytometry. E. Immunofluorescence of spinal cord from animals on day 17th. At top the control animals and at the bottom the animals treated with Xenon. The tissue was stained for Tmem119, Clec7a and MBP, quantification measured by the Fiji ImageJ software. Statistical analysis: T-test. In order to evaluate the effects of Xenon as a possible candidate for Multiple Sclerosis (MS) treatment, we development a new protocol of exposition. We used the experimental autoimmune encephalomyelitis (EAE) model that mimics part of the mechanisms presents in MS. The induction of this model is due to the combination of the oligodendrocyte myelin (MOG) diluted in complete Freund's adjuvant (CFA) to break immunological tolerance and initiate the development of autoimmunity in these animals. In association we give two 200 ng doses of Bordetella Pertussis toxin that helps in increasing the permeability of the blood-brain barrier allowing the entry of immune cells to the spinal cord. The treatment with xenon was divided into 5 exposures of 40 minutes divided twice a week in the concentration of 3 PSI of xenon with 1 PSI of oxygen with the oxygen and CO2 concentration constantly measured. This treatment took place from day 0 to day 15 after immunization, with the animals' euthanasia on day 17 (See FIG. 9A). The clinical evaluation started on day 8 with the clinical signs being classified into: 0 no disease, 1—limp tail, 2—weak/partially paralyzed hind legs, 3—completely paralyzed hind legs, 4—complete hind and partial front leg paralysis, 5—complete paralysis/death.

Assay [5] deals with Apoe in CD68+ phagosomes in APP/PS1 mice. The experiment in a line: Apoe engulfed in CD68+ phagosomes in APP/PS1 mice. It counts as in vivo, mouse. How it is done: APP-PS1 and WT mice were exposed to Xenon vs. normal air in vivo for 8 weeks. After that, the mice were sacrificed and perfused with Hanks' Balanced Salt solution (HBSS). The mouse brain was separated, and the right hemisphere was fixed in 4% PFA. After 24 hours the hemisphere was then transferred to a 30% sucrose solution for 48 hours. Brains were later frozen in Tissue-TeK O.C.T. and stored at −80 until ready to be cut. […] sagittal brain sections were cut with a cryostat and kept free floating in cryoprotectant solution. On the first day of staining, free floating brain sections were washed twice with phosphate buffered saline (PBS) and then incubated for one hour in blocking buffer (PBS, 0.1% Triton, 1% Bovine Serum Albumin, 10% Normal Horse Serum). Afterwards, the sections were incubated with primary antibody [Mouse-anti-Apoe (1:1000) and Rat-anti-CD68 (1:200)] in pre-blocking buffer (PBS, 0.1% Triton, 1% Bovine Serum Albumin, 5% Normal Horse Serum) on a shaker overnight at 4° C. The following day, the sections were washed three times with PBS. […] For quantification of the percentage of Apoe engulfed in CD68^+ phagosomes, acquired images were imported to Fiji software (ImageJ). […] The overlap of the staining/CD68+ staining was quantified in both groups. […]

The subject of assay [6] is 6E10+ Abeta plaques and Clec7a+ MGnD microglia in APP/PS1 mice. The assay can be described thus: Immunostaining of Ab load (6E10) and Clec7a+ MGnD microglia in cortex of APP/PS1 mice. The class given is in vivo, mouse. How it is done: APP-PS1 and WT mice were sacrificed and perfused with Hanks' Balanced Salt solution (HBSS). The mouse brains were separated, and the right hemispheres fixed in 4% PFA. After 24 hours the hemispheres were then transferred to a 30% sucrose solution for 48 hours. Brains were later frozen in Tissue-TeK O.C.T. and stored at −80 until ready to be cut. […] sagittal brain sections were cut with a cryostat and kept free floating in cryoprotectant solution. On the first day of staining, free floating brain sections were washed twice with phosphate buffered saline (PBS) and then incubated for one hour in blocking buffer (PBS, 0.1% Triton, 1% Bovine Serum Albumin, 10% Normal Horse Serum). Afterwards, the sections were incubated with primary antibody [Mouse-anti-Abeta Ab (1:1000, Biolegend, 6E10) and Rat-anti-Clec7a (1:300, Invivogen, mabg-mdect)] in pre-blocking buffer (PBS, 0.1% Triton, 1% Bovine Serum Albumin, 5% Normal Horse Serum) on a shaker overnight at 4° C. The following day, the sections were washed three times with PBS. Secondary antibodies (Donkey-anti-mouse-Cy3 (1:800, JIR, 715-165-150) and Goat-anti-Rat-647 (1:800, Invitrogen, A-21247)) in pre-blocking buffer were added to the sections for 1 hour at room temperature. After washing the sections 3 times with PBS, they were moved onto glass slides and covered with a glass coverslip and DAPI. Then images were taken by Leica DMi8 microscope. 4-6 images of prefrontal cortex with 10× magnification were taken per brain section (3 brain sections were stained per mouse, n=3-5).
For quantification of MGnD and Ab load, acquired images were imported to Fiji software (ImageJ). Then the data channels were separated. Gaussian filtering was used to remove noise. Next, the MGnD and plaques were shown using automatic thresholding methods in Fiji (with “Triangle” thresholding setting for MGnD and “Otsu” for Ab load 6E10). Finally, the percentage of the MGnD and Ab plaques over the cortical area was calculated and averaged, indicating the distribution of MGnD and Ab plaques in the prefrontal cortex.

Where [7] appears, read: Xe-gas for one hour immediately after dead neurons injection.

With `[Xe]` [Xenon], in assay [1] (setting [7]), the “Trem2 expression in microglia” value is “significantly induced”; the “expression of homeostatic genes such as Siglech, Cst3, Fcgrt and Clqb” value was “induces expression”. Also, the “homeostatic and phagocytosis-related genes in MG-dNΦ” value in assay [1] (Xenon vs. normal air in vivo, RNA-Sequencing) was “induces”. Besides, in assay [2], the anti-apoptotic effect result is “profound anti-apoptotic effect”. Also, the “apoptosis in stored U-937 cells” value in the assay on U-937 cells is “inhibited apoptosis”. Also, in assay [3], the “antiapoptotic effect on neurons in AD cell models” value was “direct antiapoptotic effect”. Also, in assay [4], the “cytokines induced in MGnD-microglia associated with Aβ-plaques, such as Spp1, Apoe, and Igf1” value is recorded as “suppresses”. Also, in assay [4] (Xe once a week for 40 minutes for 8 weeks), the Bhlhe40 in microglia entry is given as “significantly reduced”. The “expression of inflammatory genes including App, Lpl, IIlb, Spp1 and Apoe in microglia” value in assay [4] (Xe once a week for 40 minutes for 8 weeks, approx. 70% Xe and 20% O2) is recorded as “suppressed”. Also, the “clinical signs (EAE score)” value with EAE in C57BL6 animals (5 exposures of 40 minutes twice a week, day 0 to day 15) was “delay”. For the same molecule, in the assay with EAE in C57BL6 animals (flow cytometry), the “expression of CD44 (activation marker) in T lymphocytes” value is listed as “tendency to lower expression” and the “frequency of IFNg in T lymphocytes” value is given as “higher frequency”. Also, the “frequency of clec7a+ cells in the spinal cord” value in the assay with EAE in C57BL6 animals (immunohistochemistry, day 17) is “decrease in the frequency”. For the same molecule, in the assay with EAE in C57BL6 animals (spinal cord, flow cytometry), the “frequency of microglial cells positive for Clec7a” value was “lower frequency”; the “frequency of microglial cells positive for Tmem119, PD1 and CD206” value was “tended to have a higher frequency”. For the same molecule, in the assay on EAE in C57BL6 animals (spinal cord, immunohistochemistry, day 17), the demyelination entry is “tendency of less demyelination”. Moreover, in assay [5] (APP/PS1 mice), the “APOE in the plaque region” value was “reduced”. Also, the “APOE phagocytosed by CD68+ cells” value in assay [5] (APP/PS1 mice exposed to Xenon vs. normal air for 8 weeks) is recorded as “significant reduction”. Further, the “% positive area stained by Clec7a” value in assay [6] (APP/PS1 mice, cortex, compared to the control group) is recorded as “significantly decreased”. Further, in assay [6] (APP/PS1 mice, prefrontal cortex, compared to the control group), the “% cortical area of 6E10+ Abeta plaques” value is on record as “significant reduction”. In addition, in assay [6] (all groups of different plaque sizes), the “number of plaques of different sizes” value is given as “reduction in all groups”. For the same molecule, the “number of plaques, plaque size 0-100 um2” value in assay [6] (plaque size 0-100 um2) was “reduction reached significance”.
